Laboratory results from patent US8652522B2, “Pharmaceutical composition of an iontophoresis” (Teikoku Seiyaku Co., Ltd., priority 2009, dated 2014).
Like-named read-outs stand apart in the source and are kept apart here. Values belong to the compound of their own block, whether it stands above or below them.

How the values were obtained:
[1] = blood plasma
Description: (§1) Moreover, the condition of the transdermally administration in association with the treatment of applying current is as follows.
(§2) This was funneled into a patch comprising an electrode and an adhesion layer, and cooled down at −80° C. to obtain a desired drug product.
Two NZ family male rabbits to be devoted to the test was bought from […] LABES Co., Ltd., (Charles River Japan, Inc.). […] The observation of the animal during the preliminary breeding and the test, as to a hair coat, a skin and a excretory substance was carried out every day.
The administration route: the transdermally administration in association with the treatment of applying current
The radioactivity density assay in the blood plasma was carried out as follows.
A sample for assay was treated by adding the solubilizing agent, and the measurement of the sample was carried out by using the liquid scintillation counter (LSC-1000, ALOKA). The limit of determinate quantity was two folds of the background, and the lesser value of the limit was determined as ND. The radioactivity density assay in the blood plasma was calculated from the measured value.
The radioactivity density is used as indication pointer, the calibrated concentration of the chemical drug converted with unaltered substance was calculated by the following formula. The calibrated concentration of the chemical drug (μg eq./mL)=The radioactivity density in the sample (dpm/mL)/{the amount of the administration radioactivity (dpm)/the amount of the administration chemical drug (μg)}

[2] = Description: as §1, §2
After that, an embedded freezing block was directed to the cutter of the microtome stage for mounting (CRYOMACROCUT, Leica), and a femoral region thereof was directed to the front, and a neck region was directed to the backside, and was fixed with being in close contact with the backside of the leg to the stage for mounting. When the stage for mounting of microtome was slid, the cutter was contacted perpendicular with the narrow side of the rectangular, the upper surface of this was chipped off as a sliced segment, the sliced segment was in close contact to the adhesive tape, and removed. This operation was repeated a couple dozens times, it was cleaved from the front portion of the knee to the backside portion, a segment of the administration and current-carrying part was (1) to (7) (from the front to the backside) in order of precedence.

Remark: listed apart in the source

average of drug conversion ([1]; 30 min. administration individual, 10 minutes): 0.01 μg eq./mL
average of drug conversion ([1]; 30 min. administration individual, 20 minutes): 0.03 μg eq./mL
average of drug conversion ([1]; 30 min. administration individual, 30 minutes): 0.09 μg eq./mL
average of drug conversion ([1]; 120 min. administration individual, 10 minutes): 0.04 μg eq./mL
average of drug conversion ([1]; 120 min. administration individual, 20 minutes): 0.09 μg eq./mL
average of drug conversion ([1]; 120 min. administration individual, 30 minutes): 0.23 μg eq./mL
average of drug conversion ([1]; 120 min. administration individual, 60 minutes): 0.66 μg eq./mL
average of drug conversion ([1]; 120 min. administration individual, 90 minutes): 0.91 μg eq./mL
average of drug conversion ([1]; 120 min. administration individual, 120 minutes): 1.17 μg eq./mL
blackened image according to 3H, cingulum of the perimysial tissue (perimysium) ([2]; existing up to the reticular dermis located in the inner side of the epidermal tissue): high density
blackened image according to 3H at a fibrous encapsulation and a synovium membrane ([2]; synovial joint, administration time 120 minutes and 30 minutes): very slight amount
Structure (SMILES): CC1CC2C3CCC4=CC(=O)C=CC4(C)C3(F)C(O)CC2(C)C1(O)C(=O)COP(=O)([O-])[O-].[Na+].[Na+] (stereo not drawn) [[^3H] Betamethasone-21-phosphate disodium salt]

pair theoritical value % Mean (N2-W (nitrogen-bubbled purified water), 4° C. 1 month): 107.68%
pair theoritical value % Mean (N2-W (nitrogen-bubbled purified water), 4° C. 2 weeks): 99.20%
pair theoritical value % Mean (N2-W (nitrogen-bubbled purified water), 4° C. 4 month): 100.06%
pair theoritical value % Mean (N2-W (nitrogen-bubbled purified water), 4° C. 6 month): 98.27%
pair theoritical value % Mean (N2-W (nitrogen-bubbled purified water), 40° C. 1 month): 85.82%
pair theoritical value % Mean (N2-W (nitrogen-bubbled purified water), 40° C. 4 month): 100.30%
pair theoritical value % Mean (N2-W (nitrogen-bubbled purified water), 50° C. 1 month): 89.72%
pair theoritical value % Mean (N2-W (nitrogen-bubbled purified water), 50° C. 4 month): 77.62%
pair theoritical value % Mean (N2-W (nitrogen-bubbled purified water), 60° C. 1 month): 38.91%
pair theoritical value % Mean (N2-W (nitrogen-bubbled purified water), 60° C. 2 weeks): 91.76%
pair theoritical value % Mean (N2-W (nitrogen-bubbled purified water), 60° C. 4 month): 41.97%
pair theoritical value % Mean (W (purified water), 4° C. 1 month): 101.42%
pair theoritical value % Mean (W (purified water), 4° C. 2 weeks): 101.05%
pair theoritical value % Mean (W (purified water), 4° C. 4 month): 110.24%
pair theoritical value % Mean (W (purified water), 4° C. 6 month): 98.01%
pair theoritical value % Mean (W (purified water), 40° C. 1 month): 96.79%
pair theoritical value % Mean (W (purified water), 40° C. 4 month): 100.99%
pair theoritical value % Mean (W (purified water), 50° C. 1 month): 78.74%
pair theoritical value % Mean (W (purified water), 50° C. 4 month): 70.87%
pair theoritical value % Mean (W (purified water), 60° C. 1 month): 33.60%
pair theoritical value % Mean (W (purified water), 60° C. 2 weeks): 85.69%
pair theoritical value % Mean (W (purified water), 60° C. 4 month): 17.67%
pair theoritical value % Mean (pH 2, 4° C. 1 month): 81.61%
pair theoritical value % Mean (pH 2, 4° C. 2 weeks): 75.50%
pair theoritical value % Mean (pH 2, 4° C. 4 month): 121.42%
pair theoritical value % Mean (pH 2, 40° C. 1 month): 62.65%
pair theoritical value % Mean (pH 2, 40° C. 4 month): 57.15%
pair theoritical value % Mean (pH 2, 40° C. 6 month): 33.20%
pair theoritical value % Mean (pH 2, 50° C. 1 month): 55.83%
pair theoritical value % Mean (pH 2, 50° C. 4 month): 22.44%
pair theoritical value % Mean (pH 2, 60° C. 1 month): 14.90%
pair theoritical value % Mean (pH 2, 60° C. 2 weeks): 42.03%
pair theoritical value % Mean (pH 2, 60° C. 4 month): 2.79%
pair theoritical value % Mean (pH 3, 4° C. 1 month): 82.46%
pair theoritical value % Mean (pH 3, 4° C. 2 weeks): 85.23%
pair theoritical value % Mean (pH 3, 4° C. 4 month): 104.26%
pair theoritical value % Mean (pH 3, 40° C. 1 month): 82.48%
pair theoritical value % Mean (pH 3, 40° C. 4 month): 73.33%
pair theoritical value % Mean (pH 3, 40° C. 6 month): 50.00%
pair theoritical value % Mean (pH 3, 50° C. 1 month): 64.66%
pair theoritical value % Mean (pH 3, 50° C. 4 month): 32.84%
pair theoritical value % Mean (pH 3, 60° C. 1 month): 17.55%
pair theoritical value % Mean (pH 3, 60° C. 2 weeks): 50.37%
pair theoritical value % Mean (pH 3, 60° C. 4 month): 3.46%
pair theoritical value % Mean (pH 4, 4° C. 1 month): 95.85%
pair theoritical value % Mean (pH 4, 4° C. 2 weeks): 89.42%
pair theoritical value % Mean (pH 4, 4° C. 4 month): 108.15%
pair theoritical value % Mean (pH 4, 4° C. 6 month): 81.32%
pair theoritical value % Mean (pH 4, 40° C. 1 month): 81.36%
pair theoritical value % Mean (pH 4, 40° C. 4 month): 77.80%
pair theoritical value % Mean (pH 4, 40° C. 6 month): 53.22%
pair theoritical value % Mean (pH 4, 50° C. 1 month): 63.08%
pair theoritical value % Mean (pH 4, 50° C. 4 month): 31.80%
pair theoritical value % Mean (pH 4, 60° C. 1 month): 19.17%
pair theoritical value % Mean (pH 4, 60° C. 2 weeks): 52.38%
pair theoritical value % Mean (pH 4, 60° C. 4 month): 3.38%
pair theoritical value % Mean (pH 5, 4° C. 1 month): 93.36%
pair theoritical value % Mean (pH 5, 4° C. 2 weeks): 94.34%
pair theoritical value % Mean (pH 5, 4° C. 4 month): 109.24%
pair theoritical value % Mean (pH 5, 4° C. 6 month): 90.85%
pair theoritical value % Mean (pH 5, 40° C. 1 month): 78.88%
pair theoritical value % Mean (pH 5, 40° C. 4 month): 82.09%
pair theoritical value % Mean (pH 5, 50° C. 1 month): 75.05%
pair theoritical value % Mean (pH 5, 50° C. 4 month): 32.88%
pair theoritical value % Mean (pH 5, 60° C. 1 month): 17.09%
pair theoritical value % Mean (pH 5, 60° C. 2 weeks): 56.51%
pair theoritical value % Mean (pH 5, 60° C. 4 month): 3.34%
pair theoritical value % Mean (pH 6, 4° C. 1 month): 104.98%
pair theoritical value % Mean (pH 6, 4° C. 2 weeks): 98.90%
pair theoritical value % Mean (pH 6, 4° C. 4 month): 107.46%
pair theoritical value % Mean (pH 6, 4° C. 6 month): 97.60%
pair theoritical value % Mean (pH 6, 40° C. 1 month): 86.51%
pair theoritical value % Mean (pH 6, 40° C. 4 month): 89.24%
pair theoritical value % Mean (pH 6, 50° C. 1 month): 75.38%
pair theoritical value % Mean (pH 6, 50° C. 4 month): 41.48%
pair theoritical value % Mean (pH 6, 60° C. 1 month): 25.28%
pair theoritical value % Mean (pH 6, 60° C. 2 weeks): 69.99%
pair theoritical value % Mean (pH 6, 60° C. 4 month): 5.85%
pair theoritical value % Mean (pH 7, 4° C. 1 month): 110.30%
pair theoritical value % Mean (pH 7, 4° C. 2 weeks): 100.23%
pair theoritical value % Mean (pH 7, 4° C. 4 month): 105.27%
pair theoritical value % Mean (pH 7, 4° C. 6 month): 101.38%
pair theoritical value % Mean (pH 7, 40° C. 1 month): 89.32%
pair theoritical value % Mean (pH 7, 40° C. 4 month): 102.71%
pair theoritical value % Mean (pH 7, 50° C. 1 month): 86.96%
pair theoritical value % Mean (pH 7, 50° C. 4 month): 66.49%
pair theoritical value % Mean (pH 7, 60° C. 1 month): 36.13%
pair theoritical value % Mean (pH 7, 60° C. 2 weeks): 87.22%
pair theoritical value % Mean (pH 7, 60° C. 4 month): 25.71%
pair theoritical value % Mean (pH 8, 4° C. 1 month): 97.51%
pair theoritical value % Mean (pH 8, 4° C. 2 weeks): 104.91%
pair theoritical value % Mean (pH 8, 4° C. 4 month): 108.32%
pair theoritical value % Mean (pH 8, 4° C. 6 month): 103.29%
pair theoritical value % Mean (pH 8, 40° C. 1 month): 90.10%
pair theoritical value % Mean (pH 8, 40° C. 4 month): 106.12%
pair theoritical value % Mean (pH 8, 50° C. 1 month): 103.57%
pair theoritical value % Mean (pH 8, 50° C. 4 month): 83.79%
pair theoritical value % Mean (pH 8, 60° C. 1 month): 45.01%
pair theoritical value % Mean (pH 8, 60° C. 2 weeks): 95.80%
pair theoritical value % Mean (pH 8, 60° C. 4 month): 61.99%
Structure (SMILES): C[C@H]1C[C@H]2[C@@H]3CCC4=CC(=O)C=C[C@]4(C)[C@@]3(F)[C@@H](O)C[C@]2(C)[C@@]1(O)C(=O)COP(=O)([O-])[O-].[Na+].[Na+] [betamethasone sodium phosphate]
